According to patent US5792780A, “Azole compounds, their production and use” (Takeda Chemical Industries, Ltd., priority 1993, dated 1998):

How the values were obtained:
Candida albicans TA = assay: protective effect against experimental infection in mice (survival rate 7 days after infection); type: in vivo, Crj:CDF1 mice; conditions: po, 168 h, survival 7 days after infection
Protocol: (§1) Test Method: Five-week-old Crj:CDF1 mice were inoculated with the minimum lethal dose of Candida albicans TA intravenously. The test compound was suspended in a solution of 0.2% or 0.5% sodium carboxymethylcellulose (CMC). The suspension was administered orally once immediately after infection. The activity was expressed in terms of ED50 values calculated by the Reed and Muench method from the survival rate 7 days after infection.
as §1, with “of” for “of 0.2% or”

[1] = system: Candida albicans IFO 0583; assay: growth inhibition zone, paper disc agar diffusion; type: cell-based; conditions: IFO0583, 48 h, Table 6, Medium A, 1000 μg/ml, 28° C., two-day culture, read-out: Diameter of growth-inhibition zone
Protocol: Evaluation of the antifungal activities of the compound of the present invention was conducted by the following method: a sheet of filter paper disc (manufactured by Toyo Seisakusho, 8 mm in diameter) soaked in a 1000 μg/ml solution of a compound of the present invention in methanol was placed on an agar plate containing various fungi, which was incubated at 28° C. for two days, and the diameter of the growth inhibition zone around the filter paper disc was measured. The following culture media were used:
A: yeast nitrogen base agar medium (pH 7.0)
B: peptone-yeast extract-glucose agar medium (pH 7.0)

[2] = Table 8, P.O. once immediately after infection, 0.5% CMC
[3] = Table 7, P.O. once immediately after infection, 0.2% CMC
[4] = Table 9, compounds of formula (VI), P.O. once immediately after infection, 0.5% CMC

SMILES	ED50 (Candida albicans TA; [2]) [mg/kg]	zone of inhibition at 1000 µg/mL [1] [mm]	also measured
C[C@@H](N1CCN(c2ccc(OC(F)(F)C(F)F)cc2)C1=O)[C@](O)(Cn1cncn1)c1ccc(F)cc1 [Compound 18, 1-[(1R,2R)-2-(4-fluorophenyl)-2-hydroxy-1-methyl-3-(1H-1,2,4-triazol-1-yl)propyl]-3-[4-(1,1,2,2-tetrafluoroethoxy)phenyl]-2-imidazolidinone]	0.35	–	–
C[C@@H](N1CC(=O)N(c2ccc(OCC(F)(F)C(F)F)cc2)CC1=O)[C@](O)(Cn1cncn1)c1ccc(F)cc1F [Compound 11, 1-[(1R,2R)-2-(2,4-difluorophenyl)-2-hydroxy-1-methyl-3-(1H-1,2,4-triazol-1-yl)propyl]-4-[4-(2,2,3,3-tetrafluoropropoxy)phenyl]-2,5-piperazinedione]	–	31	–
C[C@@H](N1CCN(c2ccc(OC(F)(F)C(F)F)cc2)C1=O)[C@](O)(Cn1cncn1)c1ccccc1F [Compound 16, 1-[(1R,2R)-2-(2-fluorophenyl)-2-hydroxy-1-methyl-3-(1H-1,2,4-triazol-1-yl)propyl]-3-[4-(1,1,2,2-tetrafluoroethoxy)phenyl]-2-imidazolidinone]	0.35	–	–
C[C@@H](N1CCN(c2ccc(Cl)cc2)C1=O)[C@](O)(Cn1cncn1)c1ccc(F)cc1F [Compound 10, 1-(4-chlorophenyl)-3-[(1R,2R)-2-(2,4-difluorophenyl)-2-hydroxy-1-methyl-3-(1H-1,2,4-triazol-1-yl)propyl]-2-imidazolidinone]	–	42	ED50 (Candida albicans TA; [3]): 1.8 mg/kg
C[C@@H](N1CCN(c2ccc(OCC(F)(F)C(F)F)cc2)C1=O)[C@](O)(Cn1cncn1)c1ccccc1F [Compound 17, 1-[(1R,2R)-2-(2-fluorophenyl)-2-hydroxy-1-methyl-3-(1H-1,2,4-triazol-1-yl)propyl]-3-[4-(2,2,3,3-tetrafluoropropoxy)phenyl]-2-imidazolidinone]	0.65	–	–
C[C@@H](N1CCN(c2ccc(F)cc2)C1=O)[C@](O)(Cn1cncn1)c1ccc(F)cc1F [Compound 5, 1-[(1R,2R)-2-(2,4-difluorophenyl)-2-hydroxy-1-methyl-3-(1H-1,2,4-triazol-1-yl)propyl]-3-(4-fluorophenyl)-2-imidazolidinone]	–	47	–
C[C@@H](N1CCN(c2ccc(OC(F)(F)C(F)F)cc2)C(=O)C1=O)[C@](O)(Cn1cncn1)c1ccc(F)cc1F [Compound 15, 1-[(1R,2R)-2-(2,4-difluorophenyl)-2-hydroxy-1-methyl-3-(1H-1,2,4-triazol-1-yl)propyl]-4-[4-(1,1,2,2-tetrafluoroethoxy)phenyl]-2,3-piperazinedione]	2	–	–
C[C@@H](N1CCN(c2ccc(OCC(F)(F)C(F)F)cc2)C(=O)C1=O)[C@](O)(Cn1cncn1)c1ccc(F)cc1F [Compound 14, 1-[(1R,2R)-2-(2,4-difluorophenyl)-2-hydroxy-1-methyl-3-(1H-1,2,4-triazol-1-yl)propyl]-4-[4-(2,2,3,3-tetrafluoropropoxy)phenyl]-2,3-piperazinedione]	2.8	–	–
C[C@@H](N1CC(=O)N(c2ccc(OC(F)(F)C(F)F)cc2)CC1=O)[C@](O)(Cn1cncn1)c1ccc(F)cc1F [Compound 12, 1-[(1R,2R)-2-(2,4-difluorophenyl)-2-hydroxy-1-methyl-3-(1H-1,2,4-triazol-1-yl)propyl]-4-[4-(1,1,2,2-tetrafluoroethoxy)phenyl]-2,5-peperazinedione]	2.8	–	–
C[C@@H](n1ccn(-c2ccc(OC(F)(F)C(F)F)cc2)c1=O)[C@](O)(Cn1cncn1)c1ccc(F)cc1 [Reference Example 45, 1-[(1R,2R)-2-(4-fluorophenyl)-2-hydroxy-1-methyl-3-(1H-1,2,4-triazol-1-yl)propyl]-3-[4-(1,1,2,2-tetrafluoroethoxy)phenyl]-2(1H,3H)-imidazolone]	–	–	ED50 (Candida albicans TA; [4]): 0.18 mg/kg
C[C@@H](N1CCN(c2ccc(OCC(F)(F)F)cc2)C1=O)[C@](O)(Cn1cncn1)c1ccc(F)cc1F [Compound 9, 1-[(1R,2R)-2-(2,4-difluorophenyl)-2-hydroxy-1-methyl-3-(1H-1,2,4-triazol-1-yl)propyl]-3-[4-(2,2,2-trifluoroethoxy)phenyl]-2-imidazolidinone]	–	41	ED50 (Candida albicans TA; [3]): 0.65 mg/kg
C[C@@H](n1ccn(-c2ccc(OCC(F)(F)C(F)F)cc2)c1=O)[C@](O)(Cn1cncn1)c1ccc(F)cc1 [Reference Example 46, 1-[(1R,2R)-2-(4-fluorophenyl)-2-hydroxy-1-methyl-3-(1H-1,2,4-triazol-1-yl)propyl]-3-[4-(2,2,3,3-tetrafluoropropoxy)phenyl]-2(1H,3H)-imidazolone]	–	–	ED50 (Candida albicans TA; [4]): 0.32 mg/kg
C[C@@H](N1CC(=O)N(c2ccc(F)cc2F)C1=O)[C@](O)(Cn1cncn1)c1ccc(F)cc1F [Compound 3, 1-[(1R,2R)-2-(2,4-difluorophenyl)-2-hydroxy-1-methyl-3-(1H-1,2,4-triazol-1-yl)propyl]-3-(2,4-difluorophenyl)-2,4-imidazolidinedione]	–	41	ED50 (Candida albicans TA; [3]): 2 mg/kg
C[C@@H](n1ccn(-c2ccc(OCC(F)(F)C(F)F)cc2)c1=O)[C@](O)(Cn1cncn1)c1ccccc1F [Reference Example 50, 1-[(1R,2R)-2-(2-fluorophenyl)-2-hydroxy-1-methyl-3-(1H-1,2,4-triazol-1-yl)propyl]-3-[4-(2,2,3,3-tetrafluoropropoxy)phenyl]-2(1H,3H)-imidazolone]	–	–	ED50 (Candida albicans TA; [4]): 0.32 mg/kg
C[C@@H](N1CCN(c2ccc(OCC(F)(F)C(F)(F)F)cc2)C1=O)[C@](O)(Cn1cncn1)c1ccc(F)cc1F [Compound 8, 1-[(1R,2R)-2-(2,4-difluorophenyl)-2-hydroxy-1-methyl-3-(1H-1,2,4-triazol-1-yl)propyl]-3-[4-(2,2,3,3,3-pentafluoropropoxy)phenyl]-2-imidazolidinone]	–	28	ED50 (Candida albicans TA; [3]): 2 mg/kg
C[C@@H](N1CCN(c2ccc(OC(F)(F)C(F)F)cc2)C1=O)[C@](O)(Cn1cncn1)c1ccc(F)cc1F [Compound 7, 1-[(1R,2R)-2-(2,4-difluorophenyl)-2-hydroxy-1-methyl-3-(1H-1,2,4-triazol-1-yl)propyl]-3-[4-(1,1,2,2-tetrafluoroethoxy)phenyl]-2-imidazolidinone]	0.35	35	ED50 (Candida albicans TA; [3]): 0.65 mg/kg
C[C@@H](n1ccn(-c2ccc(OC(F)(F)C(F)F)cc2)c1=O)[C@](O)(Cn1cncn1)c1ccccc1F [Reference Example 49, 1-[(1R,2R)-2-(2-fluorophenyl)-2-hydroxy-1-methyl-3-(1H-1,2,4-triazol-1-yl)propyl]-3-[4-(1,1,2,2-tetrafluoroethoxy)phenyl]-2(1H,3H)-imidazolone]	–	–	ED50 (Candida albicans TA; [4]): 0.18 mg/kg
C[C@@H](N1CCN(c2ccc(OCC(F)(F)C(F)F)cc2)C1=O)[C@](O)(Cn1cncn1)c1ccc(F)cc1 [Compound 19, 1-[(1R,2R)-2-(4-fluorophenyl)-2-hydroxy-1-methyl-3-(1H-1,2,4-triazol-1-yl)propyl]-3-[4-(2,2,3,3-tetrafluoropropoxy)phenyl]-2-imidazolidinone]	0.77	–	–
C[C@@H](N1CCN(c2ccc(OCC(F)(F)C(F)F)cc2)C1=O)[C@](O)(Cn1cncn1)c1ccc(F)cc1F [Compound 6, 1-[(1R,2R)-2-(2,4-difluorophenyl)-2-hydroxy-1-methyl-3-(1H-1,2,4-triazol-1-yl)propyl]-3-[4-(2,2,3,3-tetrafluoropropoxy)phenyl]-2-imidazolidinone]	0.71	36	–
